Activity calls are given as the source filed them.
Experiments:
HUVEC = test: Cytotoxicity against HUVEC cells incubated for 48 hrs by CCK-8 assay; format: toxicity, cell-based; conditions: human
MCF7 = test: Cytotoxicity against human MCF7 cells incubated for 48 hrs by CCK-8 assay; format: functional, cell-based
[1] = Cytotoxicity against human LX2 cells incubated for 48 hrs by CCK-8 assay; format: toxicity, cell-based; conditions: lx-2, 48 h
HepG2 = test: Cytotoxicity against human HepG2 cells incubated for 48 hrs by CCK-8 assay; format: functional, cell-based
Staphylococcus aureus [2] = test: Antibacterial activity against Staphylococcus aureus 745324 assessed as inhibition of bacterial growth incubated for 18 hrs by broth microdilution method; format: functional
Enterococcus faecium [3] = test: Antibacterial activity against Enterococcus faecium 35682 assessed as inhibition of bacterial growth incubated for 18 hrs by broth microdilution method; format: functional
Staphylococcus aureus [4] = test: Antibacterial activity against Staphylococcus aureus 991 assessed as inhibition of bacterial growth incubated for 18 hrs by broth microdilution method; format: functional
Staphylococcus aureus [5] = test: Antibacterial activity against Staphylococcus aureus 16162 assessed as inhibition of bacterial growth incubated for 18 hrs by broth microdilution method; format: functional
Staphylococcus aureus [6] = test: Antibacterial activity against Staphylococcus aureus 16339 assessed as inhibition of bacterial growth incubated for 18 hrs by broth microdilution method; format: functional
Staphylococcus aureus [7] = test: Antibacterial activity against Staphylococcus aureus GDE4P037P assessed as inhibition of bacterial growth incubated for 18 hrs by broth microdilution method; format: functional
Bacillus subtilis = test: Antibacterial activity against Bacillus subtilis BS01 assessed as inhibition of bacterial growth incubated for 18 hrs by broth microdilution method; format: functional
HeLa = test: Cytotoxicity against human HeLa cells incubated for 48 hrs by CCK-8 assay; format: functional, cell-based
Enterococcus gallinarum = test: Antibacterial activity against Enterococcus gallinarum 5F52C assessed as inhibition of bacterial growth incubated for 18 hrs by broth microdilution method; format: functional
Enterococcus faecium [8] = test: Antibacterial activity against Enterococcus faecium 36235 assessed as inhibition of bacterial growth incubated for 18 hrs by broth microdilution method; format: functional
A549 = test: Cytotoxicity against human A549 cells incubated for 48 hrs by CCK-8 assay; format: functional, cell-based
Staphylococcus aureus [9] = test: Antibacterial activity against Staphylococcus aureus 669 assessed as inhibition of bacterial growth incubated for 18 hrs by broth microdilution method; format: functional
Staphylococcus aureus [10] = test: Antibacterial activity against Staphylococcus aureus 3090 assessed as inhibition of bacterial growth incubated for 18 hrs by broth microdilution method; format: functional
Micrococcus luteus = test: Antibacterial activity against Micrococcus luteus ML01 assessed as inhibition of bacterial growth incubated for 18 hrs by broth microdilution method; format: functional
HCT-116 = test: Cytotoxicity against human HCT-116 cells incubated for 48 hrs by CCK-8 assay; format: functional, cell-based
Staphylococcus aureus [11] = test: Antibacterial activity against methicillin-resistant Staphylococcus aureus assessed as inhibition of bacterial growth incubated for 18 hrs by broth microdilution method; format: functional
Staphylococcus aureus [12] = test: Antibacterial activity against Staphylococcus aureus 718306 assessed as inhibition of bacterial growth incubated for 18 hrs by broth microdilution method; format: functional
Staphylococcus simulans = test: Antibacterial activity against Staphylococcus simulans AKA1 assessed as inhibition of bacterial growth incubated for 18 hrs by broth microdilution method; format: functional
Staphylococcus aureus [13] = test: Antibacterial activity against Staphylococcus aureus 6917 assessed as inhibition of bacterial growth incubated for 18 hrs by broth microdilution method; format: functional
RBE = test: Cytotoxicity against human RBE cells incubated for 48 hrs by CCK-8 assay; format: functional, cell-based
Staphylococcus aureus [14] = test: Antibacterial activity against Staphylococcus aureus 1862 assessed as inhibition of bacterial growth incubated for 18 hrs by broth microdilution method; format: functional
Enterococcus faecium [15] = test: Antibacterial activity against Enterococcus faecium 36711 assessed as inhibition of bacterial growth incubated for 18 hrs by broth microdilution method; format: functional
Staphylococcus aureus [16] = test: Antibacterial activity against Staphylococcus aureus ATCC 29213 assessed as inhibition of bacterial growth incubated for 18 hrs by broth microdilution method; format: functional
Enterococcus faecalis [17] = test: Antibacterial activity against Enterococcus faecalis ATCC 29212 assessed as inhibition of bacterial growth incubated for 18 hrs by broth microdilution method; format: functional
Enterococcus faecalis [18] = test: Antibacterial activity against Enterococcus faecalis 36950 assessed as inhibition of bacterial growth incubated for 18 hrs by broth microdilution method; format: functional

CCCc1c(Cl)c(OC)c(Cl)c(Oc2c(Cl)c(O)c(Cl)c3c2C(=O)O[C@H](C)C3)c1OC
Non-Toxic: Activity (HUVEC) | Activity [1]
8 µg/mL: MIC (Staphylococcus aureus [7]) | MIC (Staphylococcus aureus [12]) | MIC (Staphylococcus aureus [13]) | MIC (Enterococcus faecium [15]) | MIC (Enterococcus faecalis [17])
inactive: Activity (MCF7) | Activity (HepG2) | Activity (HeLa) | Activity (A549) | Activity (HCT-116) | Activity (RBE)
32 µg/mL: MIC (Enterococcus faecium [3])
2 µg/mL: MIC (Bacillus subtilis) | MIC (Micrococcus luteus)
4 µg/mL: MIC (Staphylococcus aureus [2]) | MIC (Staphylococcus aureus [4]) | MIC (Staphylococcus aureus [5]) | MIC (Staphylococcus aureus [6]) | MIC (Enterococcus gallinarum) | MIC (Staphylococcus aureus [9]) | MIC (Staphylococcus aureus [10]) | MIC (Staphylococcus aureus [11]) | MIC (Staphylococcus simulans) | MIC (Staphylococcus aureus [14]) | MIC (Staphylococcus aureus [16]) | MIC (Enterococcus faecalis [18])
16 µg/mL: MIC (Enterococcus faecium [8])

Source: ChEMBL document CHEMBL5252555, “Antimicrobial Polyketides from the Marine-Derived Fungus Spiromastix sp. SCSIO F190” (J Nat Prod, 2023)
